Laboratory results published in US8445217B2, “Free solution measurement of molecular interactions by backscattering interferometry” (Vanderbilt University, priority 2007, dated 2013).
Read-outs that look alike come from different tables or passages of the source.

Key:
Calmodulin (CaM) [1] = biological target: T1, Calmodulin (CaM) (Homo sapiens, UniProt P0DP23); assay: BSI free-solution CaM-Ca^2+ interaction; assay type: binding; conditions: for Kd: 5 μM CaM, pH 7.5, 25° C.
T1 construct: purchased Sigma, St. Louis, Mo
Method: Homogeneous, label-free CaM-Ca^2+ interactions are quantified with BSI by real-time monitoring the sequential reactions of a constant concentration of 5 μM CaM with Ca^2+ solutions increasing in concentrations from 12.5-100 μM (FIG. 24A). Here CaM was buffered at pH=7.5 with 0.1M HEPES and 0.1M KCl, with its concentration held constant at 5 μM. In this aspect, the CaM solution contained a small amount of EGTA to chelate any free Ca^2+. The reactions were carried out in the same microfluidic chip molded in PDMS with the temperature fixed at 25° C. A 5 μM CaM solution and a 100 μM Ca^2+ solution both consisting of excess EGTA (i.e., 400 μM), served as the control.
Kinetic analysis using a single exponential gives rise to a plot of observed rates versus Ca^2+ concentration that is linear. A least squares analysis of the linear plot yields the slope, intercept, and their respective errors. […] Without wishing to be bound by theory, it is believed that the disparity in these two values was due likely to a less than optimal approach to fitting the kinetic data and the RI background present from unreacted ligand, particularly at high concentrations.
These experiments were conducted at 25±0.01° C. maintained by a thermoelectric temperature controller (MELCOR, Trenton, N.J.) coupled to a Peltier device. Binding experiments were monitored in real-time at frequencies ca. 50-100 Hz.
CaM was buffered at a pH=7.5 with 0.1M HEPES and 0.1M KCl with its concentration held constant throughout the experiment at 5 μM. The CaM solution contained a small amount of EGTA to chelate any free Ca^2+. BSI monitored, in real-time, the sequential reactions of 5 μM CaM with concentrations of Ca^2+ ranging from 12.5-100 μM.

Calmodulin (CaM) [2] = biological target: T1, Calmodulin (CaM); conditions: literature; read-out: published Kd values, calmodulin-calcium ion interaction; cited from earlier work

**Q.** What does the source list for `[Ca+2]` [Ca^2+]?
**A.** control: change in signal above that observed in the absence of excess EGTA at equivalent concentrations (Calmodulin (CaM) [1]; 5 μM CaM and 100 μM Ca^2+, both with excess EGTA (400 μM)): < 3%; Kd (Calmodulin (CaM) [1]; 12.5-100 μM Ca^2+, read-out: Kd CaM-Ca^2+, kinetic analysis (observed rates versus Ca^2+ concentration)): 3.36 µM; Kd (Calmodulin (CaM) [1]; read-out: Kd CaM-Ca^2+, steady-state values analysed by Prism): 17.8 µM; Kd (Calmodulin (CaM) [2]): 1 to 10 µM
